In the assay the target is T1, LPHN2 (Homo sapiens, UniProt O95490).
T1 sequence (O95490 26-1459): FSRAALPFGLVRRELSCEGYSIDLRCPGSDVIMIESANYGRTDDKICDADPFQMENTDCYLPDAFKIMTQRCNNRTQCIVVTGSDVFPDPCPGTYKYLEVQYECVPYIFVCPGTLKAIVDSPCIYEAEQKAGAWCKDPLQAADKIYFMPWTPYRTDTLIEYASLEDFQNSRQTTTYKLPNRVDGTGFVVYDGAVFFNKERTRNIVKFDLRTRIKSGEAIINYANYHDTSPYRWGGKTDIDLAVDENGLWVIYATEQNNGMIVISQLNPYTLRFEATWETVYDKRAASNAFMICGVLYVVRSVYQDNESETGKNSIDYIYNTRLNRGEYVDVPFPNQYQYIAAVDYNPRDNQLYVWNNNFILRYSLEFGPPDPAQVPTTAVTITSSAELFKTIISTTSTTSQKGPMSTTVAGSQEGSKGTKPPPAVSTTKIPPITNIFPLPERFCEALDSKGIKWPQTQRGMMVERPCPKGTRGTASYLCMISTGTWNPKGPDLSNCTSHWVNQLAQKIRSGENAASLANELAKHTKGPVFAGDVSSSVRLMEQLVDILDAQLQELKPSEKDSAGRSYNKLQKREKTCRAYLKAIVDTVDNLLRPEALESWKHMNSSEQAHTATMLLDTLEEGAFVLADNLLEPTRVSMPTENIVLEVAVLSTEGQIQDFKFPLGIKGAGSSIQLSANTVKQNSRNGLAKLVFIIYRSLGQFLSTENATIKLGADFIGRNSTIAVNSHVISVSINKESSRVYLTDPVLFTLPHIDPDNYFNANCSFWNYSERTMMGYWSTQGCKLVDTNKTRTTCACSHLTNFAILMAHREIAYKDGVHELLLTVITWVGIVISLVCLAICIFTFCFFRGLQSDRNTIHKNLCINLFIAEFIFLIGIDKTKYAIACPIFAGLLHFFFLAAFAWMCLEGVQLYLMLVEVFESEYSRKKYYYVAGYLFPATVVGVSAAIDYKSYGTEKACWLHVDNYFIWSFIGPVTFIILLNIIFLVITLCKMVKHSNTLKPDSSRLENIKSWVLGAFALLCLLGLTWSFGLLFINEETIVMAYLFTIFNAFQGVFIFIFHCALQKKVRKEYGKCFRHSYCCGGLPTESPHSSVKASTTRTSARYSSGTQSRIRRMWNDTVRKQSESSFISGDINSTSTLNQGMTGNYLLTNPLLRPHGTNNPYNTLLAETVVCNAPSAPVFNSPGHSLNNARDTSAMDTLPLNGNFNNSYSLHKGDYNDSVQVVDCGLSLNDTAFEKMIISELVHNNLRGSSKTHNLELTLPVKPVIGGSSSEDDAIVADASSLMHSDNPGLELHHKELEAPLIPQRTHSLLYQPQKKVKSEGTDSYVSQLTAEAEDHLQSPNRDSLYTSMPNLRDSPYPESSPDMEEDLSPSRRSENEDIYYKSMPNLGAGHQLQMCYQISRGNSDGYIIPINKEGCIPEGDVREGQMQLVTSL
In words: BRET G protein. The format is cell-based.

A word on the EC50: it is the concentration needed to bring the measured effect to its halfway point. Lower therefore signals higher potency in that assay.

Molecules are shown by their SMILES.

On to `COc1ccc(OC)c(NC2=NC(=O)CC(C(=O)Nc3cc(C(F)(F)F)ccc3Cl)S2)c1` (stereo not shown) [D11], for which the EC50 came to 0.0399 ± 0.0162 µM.

These data come from publication doi:10.1101/2023.10.24.563883v2 (biorxiv, 2024).
